The text below walks through data of patent US10987363B2, “Fluticasone furoate in the treatment of COPD” (GLAXOSMITHKLINE INTELLECTUAL PROPERTY DEVELOPMENT LIMITED, priority 2014, dated 2021).

Assay [1] relates to COPD patients. The experiment in a line: Re-analysis of ISOLDE 3-year clinical study: rate of decline of FEV1 by baseline blood eosinophil count. The format is in vivo, human. The following applies: 500 mcg twice daily. The text has this: Methods: The results of ISOLDE (Burge P S et al BMJ 2000; 320:1297-303), a 3-year study of the effects of fluticasone propionate (FP) 500 mcg twice daily on rate of decline of FEV1 in well-characterised COPD patients were re-analysed by baseline blood eosinophil count (≥2%, <2%).

For assay [2], the system named is COPD patients. The following applies: pre-specified analysis of ISOLDE, all patients; 500 mcg twice daily, 3 years; cited from earlier work.

Molecules are shown by their SMILES.

Consider `CCC(=O)O[C@]1(C(=O)SCF)[C@H](C)C[C@H]2[C@@H]3C[C@H](F)C4=CC(=O)C=C[C@]4(C)[C@@]3(F)[C@@H](O)C[C@@]21C` [FP, fluticasone propionate], for which the “difference in rate of decline of FEV1 vs. placebo” value in assay [1] (patients with eosinophil count <2%, 3 years) is given as “no difference”. Further, the “slowing of the rate of decline of lung function compared with placebo” value in assay [1] (patients with eosinophil count ≥2%, p=0.001) is recorded as 38 mL per year. Besides, the “effect on the rate of decline of FEV1 vs. placebo” value in assay [2] was “no effect”.
